This assay relates to TNB-induced chronic colitis. As to the kind of experiment: TNB-induced chronic colitis in the rat (damage score of the colon). Format: in vivo, Wistar rats. The following applies: damage score of chronic inflammation induced by TNB, colons scored 96 h after TNB. The procedure:
20 mg of TNB (2,4,6-trinitrobenzenesulfonic acid) in 50 % ethanol was administered into the lumen of the colon via a rubber catheter inserted rectally to Wistar rats. The test compounds were given rectally 1 h prior and 24, 48, 72 and 95 h after TNB. The rats were sacrificed 96 h after TNB and their colons were scored according to occurence of ulcers and inflammation. The number of animals in each group was at least 8. 5-ASA (5-aminosalicylic acid), a clinically used drug for the treatment of IBD was used as a reference compound.

Setting [1] is: dose 30 mg/kg rectally 1 h prior and 24, 48, 72 and 95 h after TNB.

Results on five compounds are retold here after patent EP0440324B1, “Substituted beta-diketones and their use in the treatment of inflammatory bowel disease” (ORION-YHTYMÄ OY, priority 1990, dated 1991).

With “3-[3-(4-Methoxyphenyl)propenylene]-2,4-pentanedione [Example 11]”, the “% inhibition against control” value under setting [1] was 32%.

With “3-[(3,5-Dinitro-4-hydroxyphenyl)methylene]-2,4-pentanedione. [Example 9]”, the “% inhibition against control” value under setting [1] is 40%.

With “3-[(5-Nitrothienyl)methylene]-2,4-pentanedione [Example 13]”, the “% inhibition against control” value under setting [1] was 58%.

As for `Nc1ccc(O)c(C(=O)O)c1` [5-ASA, 5-aminosalicylic acid, reference compound], the inhibition in vivo at 100 mg/kg (Rattus norvegicus, dose 100 mg/kg rectally 1 h prior and 24, 48, 72 and 95 h after TNB, read-out: % inhibition against control) was found to be 24%.

Take `CC(=O)C(=Cc1ccc(C(=O)NCCc2ccccc2)cc1)C(C)=O` [Test compound 9, 3-[(4-(N-phenethyl)carboxamido-phenyl)methylene]-2,4-pentanedione]: the inhibition in vivo at 10 mg/kg (Rattus norvegicus, dose 10 mg/kg rectally 1 h prior and 24, 48, 72 and 95 h after TNB, read-out: % inhibition against control) worked out at 60%. Moreover, the inhibition in vivo at 30 mg/kg (Rattus norvegicus, dose 30 mg/kg rectally 1 h prior and 24, 48, 72 and 95 h after TNB, read-out: % inhibition against control) is 48%.
